Measured values as given in ChEMBL document CHEMBL1149488, “Antitumour properties of fluorinated benzothiazole-substituted hydroxycyclohexa-2,5-dienones ('quinols')” (2006).

Assays:
Type in all cases: functional
[1] = tested on: MCF7; assay: Antitumor activity against human MCF7 cells by MTT assay
[2] = tested on: MDA-MB-468; assay: Antitumor activity against human MDA-MB-468 cells by MTT assay
[3] = tested on: HCT-116; assay: Antitumor activity against human HCT116 cells by MTT assay
[4] = tested on: HT-29; assay: Antitumor activity against human HT29 cells by MTT assay
[5] = tested on: Panel NCI-60 (60 carcinoma cell lines); assay: Antitumor activity against human NCI60 cells
[6] = biological target: T1, Thioredoxin reductase (Homo sapiens) (UniProt Q16881+Q9NNW7+Q86VQ6); assay: Inhibition of human thioredoxin signalling assessed as inhibition of insulin reduction at 10 uM
[7] = biological target: T1, Thioredoxin reductase (Homo sapiens); assay: Inhibition of human thioredoxin signalling assessed as inhibition of insulin reduction at 25 uM
[8] = biological target: T1, Thioredoxin reductase (Homo sapiens); assay: Inhibition of human thioredoxin signalling assessed as inhibition of insulin reduction at 50 uM
[9] = biological target: T1, Thioredoxin reductase (Homo sapiens); assay: Inhibition of human thioredoxin signalling assessed as inhibition of insulin reduction at 100 uM

GI50 [1]: 440 nM
GI50 [2]: 410 nM
GI50 [3]: 110 nM
GI50 [4]: 590 nM
inhibition [6]: 13.2%
inhibition [7]: 35.1%
inhibition [8]: 94.8%
inhibition [9]: 95.8%
SMILES: O=C1C=CC(O)(c2nc3ccccc3s2)C=C1
GI50 [5]: 230 nM
